Non-standard residues stand in square brackets, D forms with d. No end group written: not given here. pT = C[C@@H](OP(=O)(O)O)[C@H](N)C(=O)O
Assays:
[1] = biological target: Pin1-WW domain (WW50, Pin1 residues 1-50) (Homo sapiens, UniProt Q13526); assay: NMR titration of ^15N-WW50 with phosphate or HEPES; format: binding; conditions: at 10 mM buffer anion and 1 mM WW domain, calculated from KD
[2] = system: Pin1-WW domain binding surface; assay: HSQC NMR of WW53 and mutants versus WW50
[3] = biological target: Pin1-WW domain construct WW50 (Pin1 residues 1-50) (UniProt Q13526 1-50, 15N-labelled (uniform) in the NMR titrations); assay: NMR titration
[4] = C-terminal mutants of WW53 compared with WW53 and WW50

| Molecule | WW domain bound to buffer anion [1] | HSQC peak shifts of key binding surface residues versus WW53 [2, 4] | also measured |
| --- | --- | --- | --- |
| O=P(O)(O)O [phosphate, sodium phosphate] | 15% | – | – |
| WW53 E51A: WW53 construct (Pin1 residues 1-53) with E51A mutation (MADEEKLPPGWEKRMSRSSGRVYYFNHITNASQWERPSGNSSSGGKNGQGAPA; residues 1-53 (WW domain); UniProt Q13526 1-53, looked up, variant E51A) | – | progressive peak shifts for key binding surface residues | HSQC peak shifts of key binding surface residues versus WW53 ([2]; C-terminal mutants of WW53 compared with WW53 and WW50, listed as E51A): progressively shifted some key binding surface peaks toward their WW50 positions |
| O=S(=O)(O)CCN1CCN(CCO)CC1 [HEPES] | 6% | – | – |
| WW53 E51A/P52A: WW53 construct (Pin1 residues 1-53) with E51A/P52A mutations (MADEEKLPPGWEKRMSRSSGRVYYFNHITNASQWERPSGNSSSGGKNGQGAAA; residues 1-53 (WW domain); UniProt Q13526 1-53, looked up, variant E51A P52A) | – | progressive peak shifts for key binding surface residues | – |
| GVVEVDAAV[pT]PEERHLSKMQQNGY (peptide, UniProt P05067-4 659-682, looked up) [phosphopeptide representing APP residues 659-682 phosphorylated at T668 (pAPP659-682)] | – | – | koff [3]: 2040 s⁻¹; kon [3]: 9.1e+07 M⁻¹ s⁻¹ |
